The text below walks through data of publication PMC11995724, “Antibiotic target discovery by integrated phenotypic and activity-based profiling of electrophilic fragments” (Cell chemical biology, 2025).

Where a name gives a salt, the structure may show the parent alone.

This data set in a line: in vitro. As to conditions: human, hek293t cells.
On to `N#CC(=Cc1ccco1)C(=O)NS(=O)(=O)N1CCc2ccccc21` [9-J18, 2-cyano-N-(2,3-dihydro-1H-indole-1-sulfonyl)-3-(furan-2-yl)prop-2-enamide], for which the viability (as a rule, a read-out of living cells in per cent, often relative to untreated cells) at 48 h, 25 µM was found to be 116%.

`C=CC(=O)Nc1cc(C(=O)CC)ccc1F` [2-C22, N-(2-fluoro-5-propanoylphenyl)prop-2-enamide]: the viability at 48 h, 25 µM was found to be 84.8%.

For the molecule `CS(=O)(=O)N1CCC(N(CC(F)F)C(=O)CCl)CC1` [5-O12, 2-chloro-N-(2,2-difluoroethyl)-N-(1-methanesulfonylpiperidin-4-yl)acetamide], the viability at 48 h, 25 µM turned out to be 1.77%.

In the case of `CC1CCCCC1OCCNC(=O)CCl` (stereo not shown) [6-O06, 2-chloro-N-{2-[(2-methylcyclohexyl)oxy]ethyl}acetamide], the viability at 48 h, 25 µM is 112%.

Consider `CCCNC(=O)C(C#N)=Cc1ccc(-n2cncn2)c(C)c1` [9-C05, 2-cyano-3-[3-methyl-4-(1H-1,2,4-triazol-1-yl)phenyl]-N-propylprop-2-enamide], for which the viability at 48 h, 25 µM came out at 96%.

On to `N#CC(=CC=Cc1ccccc1[N+](=O)[O-])C(=O)Nc1ccccc1` [8-P20, 2-cyano-5-(2-nitrophenyl)-N-phenylpenta-2,4-dienamide], for which the viability at 48 h, 25 µM came to 48%.

Take `C=CC(=O)N1CCC(C(=O)N2CCC(CC(N)=O)C2)CC1` (stereo not shown) [2-J14, 2-{1-[1-(prop-2-enoyl)piperidine-4-carbonyl]pyrrolidin-3-yl}acetamide]: the viability at 48 h, 25 µM came out at 65%.

In the case of `C=CC(=O)NCc1oc(CC)nc1C` [3-P15, N-[(2-ethyl-4-methyl-1,3-oxazol-5-yl)methyl]prop-2-enamide], the viability at 48 h, 25 µM was 74.7%.

For the molecule `C=CC(=O)N(CC)CC(=O)N1CCc2c(ncn2CC)C1` [2-H08, N-ethyl-N-(2-{1-ethyl-1H,4H,5H,6H,7H-imidazo[4,5-c]pyridin-5-yl}-2-oxoethyl)prop-2-enamide], the viability at 48 h, 25 µM turned out to be 84.8%.

As to `C=CC(=O)N(C)Cc1cccc(Cl)c1` [2-G09, N-[(3-chlorophenyl)methyl]-N-methylprop-2-enamide], the viability at 48 h, 25 µM is 60.6%.

Take `N#CC(=Cc1ccsc1)C(=O)NCc1ccco1` [9-H22, 2-cyano-N-[(furan-2-yl)methyl]-3-(thiophen-3-yl)prop-2-enamide]: the viability at 48 h, 25 µM came to 123%.

Take `N#CC(=Cc1cc([N+](=O)[O-])ccc1Cl)C(N)=O` [8-F21, 3-(2-chloro-5-nitrophenyl)-2-cyanoprop-2-enamide]: the viability at 48 h, 25 µM amounted to 101%.

Take `CC(Cl)C(=O)NCCc1nnc(C(C)C)s1` (stereo not shown) [7-E03, 2-chloro-N-{2-[5-(propan-2-yl)-1,3,4-thiadiazol-2-yl]ethyl}propanamide]: the viability at 48 h, 25 µM was determined as 123%.

For the molecule `C=CC(=O)Nc1cnc(S(C)(=O)=O)c(C)c1` [2-O14, N-(6-methanesulfonyl-5-methylpyridin-3-yl)prop-2-enamide], the viability at 48 h, 25 µM was 99.6%.

For the molecule `C=CC(=O)N1CCC(C(=O)Nc2ccc(N(C)C(C)=O)cc2)CC1` [2-D08, N-[4-(N-methylacetamido)phenyl]-1-(prop-2-enoyl)piperidine-4-carboxamide], the viability at 48 h, 25 µM came to 81.5%.

Consider `COc1ccc2[nH]cc(C3=CCN(C(=O)C=CCN(C)C)CC3)c2c1` [10-F03, 4-(dimethylamino)-1-[4-(5-methoxy-1H-indol-3-yl)-1,2,3,6-tetrahydropyridin-1-yl]but-2-en-1-one], for which the viability at 48 h, 25 µM worked out at 92.2%.

Take `CN(C(=O)CCl)c1c(N)n(Cc2ccccc2)c(=O)[nH]c1=O` [4-E06, N-(6-amino-1-benzyl-2,4-dioxo-1,2,3,4-tetrahydropyrimidin-5-yl)-2-chloro-N-methylacetamide]: the viability at 48 h, 25 µM worked out at 22.8%.

Regarding `O=C(CCl)NC(c1ccc(F)c(Cl)c1)C(F)(F)F` (stereo not shown) [7-D16, 2-chloro-N-[1-(3-chloro-4-fluorophenyl)-2,2,2-trifluoroethyl]acetamide], the viability at 48 h, 25 µM was determined as 0.544%.

As for `C=CC(=O)NCCNS(=O)(=O)c1cc(C)ccc1F` [2-L11, N-[2-(2-fluoro-5-methylbenzenesulfonamido)ethyl]prop-2-enamide], the viability at 48 h, 25 µM worked out at 39.4%.

In the case of `CC1CCN(Cc2csc(NC(=O)CCl)n2)CC1` [6-E17, 2-chloro-N-{4-[(4-methylpiperidin-1-yl)methyl]-1,3-thiazol-2-yl}acetamide hydrochloride], the viability at 48 h, 25 µM turned out to be 0.0269%.

Turning to `C=CC(=O)Nc1ccc(OC)cc1S(C)(=O)=O` [1-C04, N-(2-methanesulfonyl-4-methoxyphenyl)prop-2-enamide], the viability at 48 h, 25 µM came out at 65.8%.

With `COc1cccc(NC(=O)C(C#N)=Cc2csnn2)c1` [8-K04, 2-cyano-N-(3-methoxyphenyl)-3-(1,2,3-thiadiazol-4-yl)prop-2-enamide], the viability at 48 h, 25 µM stood at 80.5%.

As to `COc1cc(NC(=O)CCl)c(C)cc1[N+](=O)[O-]` [4-M09, 2-chloro-N-(5-methoxy-2-methyl-4-nitrophenyl)acetamide], the viability at 48 h, 25 µM was 1.27%.

As to `O=C(CCl)NC1CCC(O)(c2cccc(F)c2)CC1` (stereo not shown) [5-A11, 2-chloro-N-[4-(3-fluorophenyl)-4-hydroxycyclohexyl]acetamide], the viability at 48 h, 25 µM stood at 0.51%.

As to `N#CC(=Cc1c[nH]nc1-c1ccccc1F)C(=O)Nc1ccccc1F` [8-H06, 2-cyano-N-(2-fluorophenyl)-3-[3-(2-fluorophenyl)-1H-pyrazol-4-yl]prop-2-enamide], the viability at 48 h, 25 µM is 90.8%.

Turning to `C=CC(=O)N1CC2(CCOCC2)C1c1ccco1` (stereo not shown) [1-D22, 1-[1-(furan-2-yl)-7-oxa-2-azaspiro[3.5]nonan-2-yl]prop-2-en-1-one], the viability at 48 h, 25 µM worked out at 72.1%.

Regarding `CC(Cl)C(=O)NCC1CCN(C)c2ccccc21` (stereo not shown) [7-J11, 2-chloro-N-[(1-methyl-1,2,3,4-tetrahydroquinolin-4-yl)methyl]propanamide], the viability at 48 h, 25 µM stood at 79.9%.

With `Cc1ccc2nc(-c3ccc(NC(=O)CCl)cc3)sc2c1` [6-I05, 2-chloro-N-[4-(6-methyl-1,3-benzothiazol-2-yl)phenyl]acetamide], the viability at 48 h, 25 µM was determined as 3.47%.

Consider `C=CC(=O)NCCC(=O)N1CCc2ncncc2C1` [2-C04, N-(3-oxo-3-{5H,6H,7H,8H-pyrido[4,3-d]pyrimidin-6-yl}propyl)prop-2-enamide], for which the viability at 48 h, 25 µM was found to be 93.3%.

Consider `CC(Cl)C(=O)NC(C)c1nnc(-c2cccc(F)c2)s1` (stereo not shown) [5-N15, 2-chloro-N-{1-[5-(3-fluorophenyl)-1,3,4-thiadiazol-2-yl]ethyl}propanamide], for which the viability at 48 h, 25 µM worked out at 98.1%.

For `N#CC(C(=O)CCl)=C1NC(C23CC4CC(CC(C4)C2)C3)=CS1` [10-F14, 2-[4-(adamantan-1-yl)-2,3-dihydro-1,3-thiazol-2-ylidene]-4-chloro-3-oxobutanenitrile], the viability at 48 h, 25 µM was 61.8%.

On to `C=CC(=O)NCC1CCc2cccnc21` (stereo not shown) [3-M07, N-({5H,6H,7H-cyclopenta[b]pyridin-7-yl}methyl)prop-2-enamide], for which the viability at 48 h, 25 µM amounted to 47.8%.

In the case of `Cc1ccc(NC(=O)C(C#N)=Cc2ccc(C)s2)cc1` [8-K13, 2-cyano-N-(4-methylphenyl)-3-(5-methylthiophen-2-yl)prop-2-enamide], the viability at 48 h, 25 µM was determined as 77%.

For `CCOc1ccc(NC(=O)CCl)cc1S(=O)(=O)N1CCCC1` [4-J16, 2-chloro-N-[4-ethoxy-3-(pyrrolidine-1-sulfonyl)phenyl]acetamide], the viability at 48 h, 25 µM was 1.41%.
